Laboratory results published in US12673038B2, “Antimycotic methoxyflavone and fluconazole combination for inhibiting cryptococcus” (Karl-Franzens-Universität Graz, priority 2019, dated 2026).
Values after ≈ are worked out from the molar mass of the structure shown.

Tests used:
[1] = test system: C. glabrata BG2; experiment: MIC determination, CLSI protocol M27-A3, OD490; assay type: cell-based, Candida glabrata; details: Nakaseomyces glabratus; C. glabrata BG2 planktonic growth, mean±SEM
[2] = test system: S. cerevisiae BY4741; experiment: ROS accumulation by DHE to ethidium conversion (flow cytometry); assay type: cell-based, Saccharomyces cerevisiae; details: day 3 after treatment
Method: S. cerevisiae BY4741 cells were grown in SMD minimal media to mid-log phase and then treated with the indicated concentrations of 5-MF; control cells were treated with the same amount of solvent (DMSO). (A) Clonogenicity was assayed by plating 500 cells on YPD agar plates and colony forming units (CFUs) were counted to calculate survival rates. (B) Yeast cells were analyzed for cell death markers via AnnV/PI co-staining using flow cytometry. (C) The accumulation of reactive oxygen species was monitored by dihydrotethidium (DHE) to ethidium (Eth) conversion using flow cytometry. Assays in (A-C) were performed on day 3 after treatment. […] Data was analyzed by one-way ANOVA and corrected for multiple comparison using a Bonferroni post-hoc test. ns: not significant, * p<0.05, *** p<0.001, **** p<0.0001. […] Accumulation of ROS was determined by dihydroethidium (DHE) staining as described for PI staining, using a 100 ng/mL DHE solution (Sigma, Germany) in PBS. After staining cells were sedimented again and resuspended in PBS to avoid dye deposition. For each sample, at least 30,000 cells were analyzed using flow cytometry (LSRII Fortessa, BD; Ex: 488 nm, Em: 585 nm).

[3] = test system: C. albicans SC5314; experiment: C. elegans infection model for C. albicans infection; assay type: in vivo, Caenorhabditis elegans; details: C. elegans Δglp-4 Δsek-1 infected with C. albicans
Method: Survival curves of non-infected (ui ctrl.) and infected (i ctrl.) nematodes treated or not with 5-MF are shown in (A), and the survival of living nematodes on day 5 is shown in (B). Synchronized C. elegans Δglp-4 Δsek-1 larvae were infected at the L4 stage as previously described (Delattin N, et al., Antimicrob Chemother. 69(2014): 1035-1044). 35-50 infected worms were then suspended in 750 μL growth medium (M9 buffer supplemented with 10 mg/L cholesterol, 100 mg/L kanamycin and 75 mg/L ampicillin) in separate wells of a 24-well plate with at least 3 wells for each condition. Worms were treated with 200 μM 5-MF or the corresponding volume of solvent (i ctrl) immediately after infection (single application). Worm survival was monitored daily over the period of five days. Additionally, the survival of non-infected worms (ui ctrl) was monitored as a control. […] In (B), worm survival is expressed as the percentage of viability at day 5 compared to day 0, with data analyzed using one-way ANOVA and corrected for multiple comparison using a Bonferroni post-hoc test. ** p<0.01, **** p<0.0001. […]
For efficacy testing of compounds, 750 μL of the worm suspension were transferred into each well of a 24-well plate and substances were added at indicated concentrations (1% DMSO). Nematodes were immediately counted (t0) and survival was monitored over five days post infection by counting living worms. […]

[4] = test system: C. glabrata BG2 biofilms; experiment: Biofilm inhibition concentration (BIC), XTT staining; assay type: cell-based, Candida glabrata; details: Nakaseomyces glabratus, BG2BIOFILMS, C. glabrata BG2 biofilm formation, mean±SEM, read-out: BIC-50

COc1cccc2oc(-c3ccccc3)cc(=O)c12 [5-MF, 5-methoxyflavone]
MIC50 [1]: 202 ± 35.6 µM (≈ 50.9 µg/mL) | accumulation of reactive oxygen species (DHE to Eth conversion) [2]: causes accumulation of reactive oxygen species | worms alive at day 5 post infection ([3]; 200 μM 5-MF single application, infected control 20.6%): 42.9% | nematode survival over 5 days post infection ([3]; compared to infected control): prolonged protection | IC50 [4]: 224 ± 15.6 µM
